Laboratory results taken from patent US10351575B2, “Bicyclic urea, thiourea, guanidine and cyanoguanidine compounds useful for the treatment of pain” (Array BioPharma Inc., priority 2012, dated 2019).

Experiments:
Assay in all cases: KinaseProfiler off-target kinase profiling
Format in all cases: biochemical
Details in all cases: 10 μM, ATP near Km
Rsk4 = Rsk4 (Homo sapiens (Human), UniProt Q9UK32)
Procedure: (§1) Representative compounds (Examples 12, 32, 26 and 2) of the invention were tested for off-target kinase activity at a concentration of 10 μM by Millipore, Inc. in their KinaseProfiler™ service against all the kinases available in their full kinase panel. Compounds were run in duplicate at a concentration of ATP near the Km for each individual kinase according to Millipore's specifications. The results are shown in Table B. Data are reported as percent of control (POC) and are the average of the two replicates.

Axl = Axl (Homo sapiens (Human), UniProt P30530)
Procedure: as §1

IRAK4 = IRAK4 (Homo sapiens (Human), UniProt Q9NWZ3)
Procedure: as §1

IR Activated = IR Activated (Homo sapiens (Human), UniProt P06213)
Procedure: as §1

MuSK = MuSK (Homo sapiens (Human), UniProt O15146)
Procedure: as §1

mTOR/FKBP12 = mTOR/FKBP12 (Homo sapiens (Human), UniProt P42345)
Procedure: as §1

CDK1/cyclinB = CDK1/cyclinB (Homo sapiens (Human), UniProt P06493)
Procedure: as §1

TLK2 = TLK2 (Homo sapiens (Human), UniProt Q86UE8)
Procedure: as §1

CDK7/cyclinH/MAT1 = CDK7/cyclinH/MAT1 (Homo sapiens (Human), UniProt P50613)
Procedure: as §1

DDR2 = DDR2 (Homo sapiens (Human), UniProt Q16832)
Procedure: as §1

EphB2 = EphB2 (Homo sapiens (Human), UniProt P29323)
Procedure: as §1

PTK5 = PTK5 (Homo sapiens (Human), UniProt P42685)
Procedure: as §1

TrkA = TrkA (Homo sapiens (Human), UniProt P04629)
Procedure: as §1

CAMK1 = CAMK1 (Homo sapiens (Human), UniProt Q14012)
Procedure: as §1

NEK11 = NEK11 (Homo sapiens (Human), UniProt Q8NG66)
Procedure: as §1

IGF-1R Activated = IGF-1R Activated (Homo sapiens (Human), UniProt P08069)
Procedure: as §1

Rsk1 = Rsk1 (Homo sapiens (Human), UniProt Q15418)
Procedure: as §1

Fgr = Fgr (Homo sapiens (Human), UniProt P09769)
Procedure: as §1

MST2 = MST2 (Homo sapiens (Human), UniProt Q13188)
Procedure: as §1

MRCKalpha = MRCKalpha (Homo sapiens (Human), UniProt Q5VT25)
Procedure: as §1

PTK6 = PTK6 (Homo sapiens (Human), UniProt Q13882)
Procedure: as §1

ULK3 = ULK3 (Homo sapiens (Human), UniProt Q6PHR2)
Procedure: as §1

LIMK1 = LIMK1 (Homo sapiens (Human), UniProt P53667)
Procedure: as §1

Bmx = Bmx (Homo sapiens (Human), UniProt P51813)
Procedure: as §1

DRAK1 = DRAK1 (Homo sapiens (Human), UniProt Q9UEE5)
Procedure: as §1

PKAC-alpha = PKAC-alpha (Homo sapiens (Human), UniProt P17612)
Procedure: as §1

Lck = Lck (Homo sapiens (Human), UniProt P06239)
Procedure: as §1

Pim-1 = Pim-1 (Homo sapiens (Human), UniProt P11309)
Procedure: as §1

BrSK2 = BrSK2 (Homo sapiens (Human), UniProt Q8IWQ3)
Procedure: as §1

KIT = KIT (Homo sapiens (Human), UniProt P10721)
Procedure: as §1

GRK5 = GRK5 (Homo sapiens (Human), UniProt P34947)
Procedure: as §1

SIK = SIK (Homo sapiens (Human), UniProt P57059)
Procedure: as §1

PKCepsilon = PKCepsilon (Homo sapiens (Human), UniProt Q02156)
Procedure: as §1

CDK6/cyclinD3 = CDK6/cyclinD3 (Homo sapiens (Human), UniProt Q00534)
Procedure: as §1

CAMK4 = CAMK4 (Homo sapiens (Human), UniProt Q16566)
Procedure: as §1

MAPKAP-K3 = MAPKAP-K3 (Homo sapiens (Human), UniProt Q16644)
Procedure: as §1

mTOR = mTOR (Homo sapiens (Human), UniProt P42345)
Procedure: as §1

MINK = MINK (Homo sapiens (Human), UniProt Q8N4C8)
Procedure: as §1

Fyn = Fyn (Homo sapiens (Human), UniProt P06241)
Procedure: as §1

MRCKalpha, sequence (Q5VT25 whole entry): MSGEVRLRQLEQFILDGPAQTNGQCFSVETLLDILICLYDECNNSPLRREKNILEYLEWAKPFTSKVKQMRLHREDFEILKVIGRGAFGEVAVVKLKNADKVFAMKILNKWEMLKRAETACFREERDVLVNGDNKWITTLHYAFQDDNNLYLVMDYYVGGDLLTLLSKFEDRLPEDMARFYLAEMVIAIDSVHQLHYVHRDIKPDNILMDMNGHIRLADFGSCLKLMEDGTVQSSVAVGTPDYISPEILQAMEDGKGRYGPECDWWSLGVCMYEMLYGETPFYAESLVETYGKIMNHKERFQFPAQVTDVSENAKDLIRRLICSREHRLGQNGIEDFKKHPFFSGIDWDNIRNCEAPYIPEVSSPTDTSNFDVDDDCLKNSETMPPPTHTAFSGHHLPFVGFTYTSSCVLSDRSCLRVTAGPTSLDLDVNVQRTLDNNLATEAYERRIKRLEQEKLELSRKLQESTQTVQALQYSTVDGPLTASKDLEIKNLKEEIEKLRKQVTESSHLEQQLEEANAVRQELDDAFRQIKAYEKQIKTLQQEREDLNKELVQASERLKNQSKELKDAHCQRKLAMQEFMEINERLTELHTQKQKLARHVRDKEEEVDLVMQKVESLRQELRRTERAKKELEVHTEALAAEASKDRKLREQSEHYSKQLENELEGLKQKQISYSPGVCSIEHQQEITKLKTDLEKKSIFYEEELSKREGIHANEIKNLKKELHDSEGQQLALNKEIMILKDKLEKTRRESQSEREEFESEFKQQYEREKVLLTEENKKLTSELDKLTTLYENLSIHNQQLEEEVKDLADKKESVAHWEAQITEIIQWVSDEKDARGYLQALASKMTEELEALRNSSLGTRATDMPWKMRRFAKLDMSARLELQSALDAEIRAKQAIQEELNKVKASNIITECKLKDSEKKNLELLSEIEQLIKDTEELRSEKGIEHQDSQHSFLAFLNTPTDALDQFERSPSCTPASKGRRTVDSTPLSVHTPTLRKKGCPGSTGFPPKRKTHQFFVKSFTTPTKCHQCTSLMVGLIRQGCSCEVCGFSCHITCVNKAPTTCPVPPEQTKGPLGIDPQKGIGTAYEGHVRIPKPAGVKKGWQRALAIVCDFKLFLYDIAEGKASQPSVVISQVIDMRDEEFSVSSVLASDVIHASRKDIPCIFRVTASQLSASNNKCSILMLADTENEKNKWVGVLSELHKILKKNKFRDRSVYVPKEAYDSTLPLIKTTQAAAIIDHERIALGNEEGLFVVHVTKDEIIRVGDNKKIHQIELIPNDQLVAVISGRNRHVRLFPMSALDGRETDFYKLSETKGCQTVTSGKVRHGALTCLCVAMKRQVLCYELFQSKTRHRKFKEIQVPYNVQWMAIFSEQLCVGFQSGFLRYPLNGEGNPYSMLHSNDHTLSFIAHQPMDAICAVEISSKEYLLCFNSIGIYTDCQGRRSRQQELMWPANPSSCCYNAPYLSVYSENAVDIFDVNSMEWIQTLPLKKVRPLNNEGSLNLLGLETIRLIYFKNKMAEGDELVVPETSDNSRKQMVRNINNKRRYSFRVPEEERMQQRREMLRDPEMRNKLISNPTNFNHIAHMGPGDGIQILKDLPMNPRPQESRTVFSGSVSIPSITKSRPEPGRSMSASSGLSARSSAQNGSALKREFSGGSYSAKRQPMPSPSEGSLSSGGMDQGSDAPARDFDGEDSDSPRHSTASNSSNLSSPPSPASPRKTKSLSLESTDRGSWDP
DRAK1, sequence (Q9UEE5 whole entry): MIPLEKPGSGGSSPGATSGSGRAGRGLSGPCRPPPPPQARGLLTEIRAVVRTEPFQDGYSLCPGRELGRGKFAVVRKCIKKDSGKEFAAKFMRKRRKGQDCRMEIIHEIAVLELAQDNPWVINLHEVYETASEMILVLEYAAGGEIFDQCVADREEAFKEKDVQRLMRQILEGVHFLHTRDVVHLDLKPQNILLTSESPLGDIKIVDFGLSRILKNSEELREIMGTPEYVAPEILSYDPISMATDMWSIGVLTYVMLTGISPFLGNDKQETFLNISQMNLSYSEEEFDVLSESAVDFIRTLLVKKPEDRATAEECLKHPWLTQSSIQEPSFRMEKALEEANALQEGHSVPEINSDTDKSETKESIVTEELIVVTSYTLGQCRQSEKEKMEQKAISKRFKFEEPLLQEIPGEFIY
MST2, sequence (Q13188 whole entry): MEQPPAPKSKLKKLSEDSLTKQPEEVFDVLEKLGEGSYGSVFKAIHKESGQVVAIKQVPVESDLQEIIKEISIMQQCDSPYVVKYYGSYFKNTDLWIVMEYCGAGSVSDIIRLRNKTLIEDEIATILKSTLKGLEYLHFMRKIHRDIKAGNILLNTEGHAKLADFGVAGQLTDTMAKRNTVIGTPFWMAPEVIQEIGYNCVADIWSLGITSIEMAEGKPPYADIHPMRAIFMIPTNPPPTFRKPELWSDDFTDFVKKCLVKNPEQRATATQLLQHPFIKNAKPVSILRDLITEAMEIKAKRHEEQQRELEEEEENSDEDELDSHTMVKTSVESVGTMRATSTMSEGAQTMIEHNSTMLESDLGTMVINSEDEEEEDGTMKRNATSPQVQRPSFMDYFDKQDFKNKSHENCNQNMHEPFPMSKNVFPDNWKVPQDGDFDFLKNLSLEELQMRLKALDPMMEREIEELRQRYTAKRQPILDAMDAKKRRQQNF
Fyn, sequence (P06241 whole entry): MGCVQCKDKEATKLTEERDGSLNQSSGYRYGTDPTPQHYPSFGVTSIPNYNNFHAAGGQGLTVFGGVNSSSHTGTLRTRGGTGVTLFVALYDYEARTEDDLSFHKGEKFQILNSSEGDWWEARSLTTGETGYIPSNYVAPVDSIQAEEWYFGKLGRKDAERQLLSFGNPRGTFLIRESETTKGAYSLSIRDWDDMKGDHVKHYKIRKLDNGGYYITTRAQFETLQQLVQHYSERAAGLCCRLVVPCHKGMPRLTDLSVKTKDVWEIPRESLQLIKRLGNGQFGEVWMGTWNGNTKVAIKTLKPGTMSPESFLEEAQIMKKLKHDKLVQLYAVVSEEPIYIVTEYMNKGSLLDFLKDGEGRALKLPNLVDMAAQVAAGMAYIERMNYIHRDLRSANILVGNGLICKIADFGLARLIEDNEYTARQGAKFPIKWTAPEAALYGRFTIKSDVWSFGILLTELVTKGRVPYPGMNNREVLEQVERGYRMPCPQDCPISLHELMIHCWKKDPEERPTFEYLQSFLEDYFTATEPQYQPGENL
TrkA, sequence (P04629 33-796): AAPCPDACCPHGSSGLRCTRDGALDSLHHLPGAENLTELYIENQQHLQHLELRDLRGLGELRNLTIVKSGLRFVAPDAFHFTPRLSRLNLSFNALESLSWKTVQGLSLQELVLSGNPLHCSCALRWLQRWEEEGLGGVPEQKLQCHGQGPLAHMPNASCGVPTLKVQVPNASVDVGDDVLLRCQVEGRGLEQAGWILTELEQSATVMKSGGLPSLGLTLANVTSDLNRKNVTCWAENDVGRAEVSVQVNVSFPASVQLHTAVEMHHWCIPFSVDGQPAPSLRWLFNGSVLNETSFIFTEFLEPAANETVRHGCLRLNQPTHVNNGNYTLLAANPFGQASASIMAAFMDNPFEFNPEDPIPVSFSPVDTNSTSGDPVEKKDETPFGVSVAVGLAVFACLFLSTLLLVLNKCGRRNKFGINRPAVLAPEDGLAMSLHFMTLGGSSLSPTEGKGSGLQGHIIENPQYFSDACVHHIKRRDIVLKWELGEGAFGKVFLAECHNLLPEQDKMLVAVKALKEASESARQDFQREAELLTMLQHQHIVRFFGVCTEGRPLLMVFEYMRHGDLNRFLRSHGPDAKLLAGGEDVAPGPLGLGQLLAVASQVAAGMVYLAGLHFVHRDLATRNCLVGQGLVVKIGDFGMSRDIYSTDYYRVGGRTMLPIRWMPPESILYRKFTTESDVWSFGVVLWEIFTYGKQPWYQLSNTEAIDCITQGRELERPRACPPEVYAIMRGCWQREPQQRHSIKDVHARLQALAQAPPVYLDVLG
PTK6, sequence (Q13882 whole entry): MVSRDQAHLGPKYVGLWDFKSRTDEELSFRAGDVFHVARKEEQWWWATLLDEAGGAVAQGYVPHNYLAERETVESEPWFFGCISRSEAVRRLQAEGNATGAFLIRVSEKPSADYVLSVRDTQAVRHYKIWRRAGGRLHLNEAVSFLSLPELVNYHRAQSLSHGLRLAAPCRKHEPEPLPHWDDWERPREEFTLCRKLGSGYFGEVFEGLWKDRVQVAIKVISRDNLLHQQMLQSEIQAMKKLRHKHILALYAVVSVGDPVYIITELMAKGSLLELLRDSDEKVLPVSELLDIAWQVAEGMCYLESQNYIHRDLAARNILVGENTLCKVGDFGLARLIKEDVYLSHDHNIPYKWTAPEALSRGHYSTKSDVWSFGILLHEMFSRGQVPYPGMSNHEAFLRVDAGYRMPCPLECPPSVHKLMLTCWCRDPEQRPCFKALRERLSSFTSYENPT
CDK6/cyclinD3, sequence (Q00534 whole entry): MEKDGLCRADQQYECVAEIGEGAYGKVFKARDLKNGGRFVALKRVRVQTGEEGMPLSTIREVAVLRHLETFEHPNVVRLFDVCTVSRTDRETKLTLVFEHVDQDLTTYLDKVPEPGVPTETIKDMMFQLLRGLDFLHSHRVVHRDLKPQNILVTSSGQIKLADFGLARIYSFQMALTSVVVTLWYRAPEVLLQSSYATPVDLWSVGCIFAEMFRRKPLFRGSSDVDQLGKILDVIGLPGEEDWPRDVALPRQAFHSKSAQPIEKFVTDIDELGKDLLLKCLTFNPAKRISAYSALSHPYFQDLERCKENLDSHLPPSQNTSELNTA
CDK6/cyclinD3, sequence (P30281 whole entry partner): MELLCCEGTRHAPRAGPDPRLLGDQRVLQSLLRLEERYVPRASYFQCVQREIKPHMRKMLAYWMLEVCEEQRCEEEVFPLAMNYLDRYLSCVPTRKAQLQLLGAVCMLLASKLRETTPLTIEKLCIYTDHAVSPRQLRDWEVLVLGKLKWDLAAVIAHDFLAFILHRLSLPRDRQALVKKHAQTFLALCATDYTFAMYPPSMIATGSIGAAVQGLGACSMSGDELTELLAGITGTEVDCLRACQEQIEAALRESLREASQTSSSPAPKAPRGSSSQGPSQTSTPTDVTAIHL

Row | Structure (SMILES) | Avg. POC (Rsk4) | Avg. POC (Axl) | Avg. POC (IRAK4) | Avg. POC (IR Activated) | Avg. POC (MuSK) | Avg. POC (mTOR/FKBP12) | Avg. POC (CDK1/cyclinB) | Avg. POC (TLK2) | Avg. POC (CDK7/cyclinH/MAT1) | Avg. POC (DDR2) | Avg. POC (EphB2) | Avg. POC (PTK5) | Avg. POC (TrkA) | Avg. POC (CAMK1) | Avg. POC (NEK11) | Avg. POC (IGF-1R Activated) | Avg. POC (Rsk1) | Avg. POC (Fgr) | Avg. POC (MST2) | Avg. POC (MRCKalpha) | further results
1 | Cc1c(-c2cnn(C)c2)nn(-c2ccccc2)c1NC(=O)N[C@H]1CCCc2ccccc21 [Example 2, (S)-1-(1′,4-dimethyl-1-phenyl-1H,1′H-3,4′-bipyrazol-5-yl)-3-(1,2,3,4-tetrahydronaphthalen-1-yl)urea] | 140 POC | 113.5 POC | 125.5 POC | 103 POC | 103.5 POC | 105 POC | 122.5 POC | 100 POC | 111 POC | 113 POC | 125 POC | 122 POC | 1.5 POC | 109.5 POC | 108.5 POC | 95 POC | 117 POC | 131 POC | 110.5 POC | 127.5 POC | Avg. POC (PTK6): 129 POC; Avg. POC (ULK3): 105 POC; Avg. POC (LIMK1): 105 POC; Avg. POC (Bmx): 113 POC; Avg. POC (DRAK1): 108.5 POC; Avg. POC (PKAC-alpha): 138.5 POC; Avg. POC (Lck): 97.5 POC; Avg. POC (Pim-1): 173 POC; Avg. POC (BrSK2): 139.5 POC; Avg. POC (KIT): 104 POC; Avg. POC (GRK5): 106.5 POC; Avg. POC (SIK): 121.5 POC; Avg. POC (PKCepsilon): 101.5 POC; Avg. POC (CDK6/cyclinD3): 100 POC; Avg. POC (CAMK4): 137.5 POC; Avg. POC (MAPKAP-K3): 128 POC; Avg. POC (mTOR): 116 POC; Avg. POC (MINK): 110.5 POC; Avg. POC (Fyn): 123.5 POC
2 | Cc1c(-c2cnn(C)c2)nn(-c2ccccc2)c1NC(=O)NC1CCOc2cc(F)ccc21 (stereo not drawn) [Example 12, 1-(1′,4-dimethyl-1-phenyl-1H,1′H-[3,4′-bipyrazol]-5-yl)-3-(7-fluorochroman-4-yl)urea] | 101 POC | 106 POC | 95.5 POC | 109 POC | 98.5 POC | 105.5 POC | 107.5 POC | 98 POC | 101 POC | 107 POC | 112 POC | 100 POC | −0.5 POC | 102 POC | 84.5 POC | 102.5 POC | 107.5 POC | 114.5 POC | 106.5 POC | 139 POC | Avg. POC (PTK6): 125.5 POC; Avg. POC (ULK3): 89.5 POC; Avg. POC (LIMK1): 97.5 POC; Avg. POC (Bmx): 115.5 POC; Avg. POC (DRAK1): 114 POC; Avg. POC (PKAC-alpha): 120.5 POC; Avg. POC (Lck): 92 POC; Avg. POC (Pim-1): 106 POC; Avg. POC (BrSK2): 147 POC; Avg. POC (KIT): 102.5 POC; Avg. POC (GRK5): 83.5 POC; Avg. POC (SIK): 133.5 POC; Avg. POC (PKCepsilon): 97.5 POC; Avg. POC (CDK6/cyclinD3): 103 POC; Avg. POC (CAMK4): 113.5 POC; Avg. POC (MAPKAP-K3): 112 POC; Avg. POC (mTOR): 104.5 POC; Avg. POC (MINK): 102 POC; Avg. POC (Fyn): 92.5 POC
3 | Cc1c(-c2ccc(=O)n(C)c2)nn(-c2ccccc2)c1NC(=O)NC1CN(CC(F)(F)F)Cc2ccccc21 (stereo not drawn) [Example 26, 1-(4-methyl-3-(1-methyl-6-oxo-1,6-dihydropyridin-3-yl)-1-phenyl-1H-pyrazol-5-yl)-3-(2-(2,2,2-trifluoroethyl)-1,2,3,4-tetrahydroisoquinolin-4-yl)urea] | 99.5 POC | 107 POC | 102 POC | 106 POC | 99.5 POC | 107.5 POC | 103 POC | 97 POC | 113.5 POC | 111 POC | 109.5 POC | 110 POC | 0.5 POC | 106 POC | 113.5 POC | 98 POC | 121 POC | 114.5 POC | 111 POC | 124.5 POC | Avg. POC (PTK6): 121 POC; Avg. POC (ULK3): 92.5 POC; Avg. POC (LIMK1): 102 POC; Avg. POC (Bmx): 109.5 POC; Avg. POC (DRAK1): 125 POC; Avg. POC (PKAC-alpha): 116 POC; Avg. POC (Lck): 96.5 POC; Avg. POC (Pim-1): 97.5 POC; Avg. POC (BrSK2): 118 POC; Avg. POC (KIT): 94 POC; Avg. POC (GRK5): 86 POC; Avg. POC (SIK): 121.5 POC; Avg. POC (PKCepsilon): 106.5 POC; Avg. POC (CDK6/cyclinD3): 104.5 POC; Avg. POC (CAMK4): 121 POC; Avg. POC (MAPKAP-K3): 108.5 POC; Avg. POC (mTOR): 102.5 POC; Avg. POC (MINK): 126.5 POC; Avg. POC (Fyn): 115.5 POC
